Experimental data from patent US8871681B2, “Herbicidal compositions comprising 4-amino-3-chloro-5-fluoro-6-(4-chloro-2-fluoro-3-methoxyphenyl) pyridine-2-carboxylic acid or a derivative thereof and certain sulfonylureas” (Dow AgroSciences LLC, priority 2012, dated 2014).

Legend:
[1] = test system: VIOTR (Viola tricolor, wild pansy); test: Post-emergence foliar-applied weed control in cereal crops, greenhouse (Example III); format: in vivo, Viola tricolor (L.)
Experimental: (§1) Seeds of the desired test plant species were planted in Sun Gro MetroMix® 306 planting mixture, which typically has a pH of 6.0 to 6.8 and an organic matter content of about 30 percent, in plastic pots with a surface area of 103.2 square centimeters (cm^2). When required to ensure good germination and healthy plants, a fungicide treatment and/or other chemical or physical treatment was applied. The plants were grown for 7-36 days in a greenhouse with an approximate 14 hour photoperiod which was maintained at about 18° C. during the day and 17° C. during the night. Nutrients and water were added on a regular basis and supplemental lighting was provided with overhead metal halide 1000-Watt lamps as necessary. The plants were employed for testing when they reached the second or third true leaf stage.
(§2) Treatments consisted of the benzyl ester of 4-amino-3-chloro-5-fluoro-6-(4-chloro-2-fluoro-3-methoxy-phenyl)pyridine-2-carboxylic acid (Compound A), formulated as an SC (suspension concentrate), and a second cereal herbicide alone and in combination.
(§3) Measured aliquot of benzyl ester of 4-amino-3-chloro-5-fluoro-6-(4-chloro-2-fluoro-3-methoxy-phenyl)pyridine-2-carboxylic acid (Compound A) was placed in 25 milliliter (mL) glass vials and diluted in a volume of 1.25% (v/v) Agri-dex crop oil concentrated to obtain stock solutions. Compound requirements are based upon a 12 mL application volume at a rate of 187 liters per hectare (L/ha). Spray solutions of the second cereal herbicide and experimental compound mixtures were prepared by adding the stock solutions to the appropriate amount of dilution solution to form 12 mL spray solution with active ingredients in two- and three-way combinations. Formulated compounds were applied to the plant material with an overhead Mandel track sprayer equipped with an 8002E nozzle calibrated to deliver 187 L/ha over an application area of 0.503 square meters (m^2) at a spray height of 18 inches (46 cm) above average plant canopy. Control plants were sprayed in the same manner with the solvent blank.
(§4) The treated plants and control plants were placed in a greenhouse as described above and watered by sub-irrigation to prevent wash-off of the test compounds. After 20-22 days, the condition of the test plants as compared with that of the control plants was determined visually and scored on a scale of 0 to 100 percent where 0 corresponds to no injury and 100 corresponds to complete kill.
(§5) Colby's equation was used to determine the herbicidal effects expected from the mixtures (Colby, S. R. 1967. Calculation of the synergistic and antagonistic response of herbicide combinations. Weeds 15:20-22.).
(§6) The following equation was used to calculate the expected activity of mixtures containing two active ingredients, A and B: Expected=A+B−(A×B/100)

[2] = test system: CIRAR (Cirsium arvense, Canada thistle); test: as above; format: in vivo, Cirsium arvense (L.) Scop.; settings: Cirsium arvense, post-emergence, foliar-applied, after 20-22 days, read-out: Weed Control CIRAR Obs
Experimental: as §1, §2, §3, §4, §5, §6

[3] = test system: LAMPU (Lamium purpureum, purple deadnettle); test: as above; format: in vivo, Lamium purpureum (L.); settings: Table 57, after 20-22 days, 8.75 gai/ha Sulfosulfuron alone
Experimental: as §1, §2, §3, §4, §5, §6

[4] = test system: VERPE (Veronica persica, bird's-eye speedwell); test: as above; format: in vivo, Veronica persica Poir.; settings: Table 57, after 20-22 days, 8.75 gai/ha Sulfosulfuron alone
Experimental: as §1, §2, §3, §4, §5, §6

[5] = test system: MATCH (Chamomilla chamomilla, scented mayweed); test: as above; format: in vivo, Chamomilla chamomilla (L.) Rydb.
Experimental: as §1, §2, §3, §4, §5, §6

[6] = test system: SIDSP (Sida spinosa, prickly sida); test: Post-emergence herbicidal activity of mixtures in forage crops, greenhouse (Example IV); format: in vivo, Sida spinosa L.; settings: Table 58 (forage); foliar-applied; after approximately 21 days; 1.1 gai/ha alone
Experimental: as §1, with “Seeds or root cuttings” for “Seeds”, “126.6” for “103.2”, “14-60” for “7-36”, “approximately 28°” for “about 18°”, “24°” for “17°”, “BBCH13 to BBCH23” for “second or third true”
(§7) Treatments consisted of the benzyl ester of 4-amino-3-chloro-5-fluoro-6-(4-chloro-2-fluoro-3-methoxy-phenyl)pyridine-2-carboxylic acid (Compound A), formulated as a SC, and a second herbicide alone and in combination.
(§8) A measured aliquot of Compound A was placed in 25 milliliter (mL) glass vial and diluted in a volume of 1.25% (v/v) Agri-dex crop oil concentrated to obtain stock solutions. Compound requirements are based upon a 12 mL application volume at a rate of 187 liters per hectare (L/ha). Spray solutions of the second cereal herbicide and experimental compound mixtures were prepared by adding the stock solutions to the appropriate amount of dilution solution to form 12 mL spray solution with active ingredients in two- and three-way combinations. […]
(§9) The treated plants and control plants were placed in a greenhouse as described above and watered by sub-irrigation to prevent wash-off of the test compounds. After approximately 21 days, the condition of the test plants, as compared with that of the control plants, was determined visually and scored on a scale of 0 to 100 percent where 0 corresponds to no injury and 100 corresponds to complete kill. […]

[7] = test system: CASOB (Cassia obtusifolia, sicklepod); test: as above; format: in vivo, Cassia obtusifolia L.; settings: Table 58 (forage); foliar-applied; after approximately 21 days; 1.1 gai/ha alone
Experimental: as §1, with “Seeds or root cuttings” for “Seeds”, “126.6” for “103.2”, “14-60” for “7-36”, “approximately 28°” for “about 18°”, “24°” for “17°”, “BBCH13 to BBCH23” for “second or third true”
as §7, §8, §9

[8] = test system: POROL (Portulaca oleracea, portulaca); test: as above; format: in vivo, Portulaca oleracea L.; settings: Table 58 (forage); foliar-applied; after approximately 21 days; 1.1 gai/ha alone
Experimental: as §1, with “Seeds or root cuttings” for “Seeds”, “126.6” for “103.2”, “14-60” for “7-36”, “approximately 28°” for “about 18°”, “24°” for “17°”, “BBCH13 to BBCH23” for “second or third true”
as §7, §8, §9

[9] = test system: IPOHE (Ipomoea hederacea, ivyleaf morningglory); test: Postemergence foliar-applied weed control, direct seeded rice, greenhouse (Example I); format: in vivo, Ipomoea hederacea Jacq.; settings: 21 DAA
Source text: Seeds or nutlets of the desired test plant species were planted in a soil matrix prepared by mixing a loam or sandy loam soil (e.g., 28.6 percent silt, 18.8 percent clay, and 52.6 percent sand, with a pH of about 5.8 and an organic matter content of about 1.8 percent) and calcareous grit in an 80 to 20 ratio. The soil matrix was contained in plastic pots with a volume of 1 quart and a surface area of 83.6 square centimeters (cm^2). When required to ensure good germination and healthy plants, a fungicide treatment and/or other chemical or physical treatment was applied. The plants were grown for 8-22 days in a greenhouse with an approximate 14 h photoperiod which was maintained at about 29° C. during the day and 26° C. during the night. Nutrients (Peters Excel® 15-5-15 5-Ca 2-Mg and iron chelate) were applied in the irrigation solution as needed and water was added on a regular basis. Supplemental lighting was provided with overhead metal halide 1000-Watt lamps as necessary. The plants were employed for testing when they reached the first through fourth true leaf stage.
Treatments consisted of the acid or esters of 4-amino-3-chloro-5-fluoro-6-(4-chloro-2-fluoro-3-methoxy-phenyl)pyridine-2-carboxylic acid (Compound A), each formulated as an SC, and various herbicidal components alone and in combination. Forms of compound A were applied on an acid equivalent basis.
Other herbicidal components were applied on an active ingredient basis and included acetolactate synthase (ALS)-inhibiting herbicides (sulfonylurea chemical class) azimsulfuron formulated as Gulliver®, bensulfuron-methyl formulated as Londax® 60DF, cyclosulfamuron (technical material), ethoxysulfuron formulated as Sunrice® 15 WDG, flazasulfuron formulated as Katana®, flucetosulfuron formulated as Sukedachi® 1KG G, foramsulfuron formulated as Option®, imazosulfuron formulated as Brazzos® WG, iodosulfuron-methyl-sodium formulated as Hussar®, metsulfuron-methyl formulated as Lorate®, nicosulfuron formulated as Accent®, orthosulfamuron formulated as Strada® WG, primisulfuron-methyl (technical material), propyrisulfuron formulated as Zeta One®, rimsulfuron formulated as Matrix® WG, sulfometuron-methyl formulated as Oust®, and trifloxysulfuron-sodium formulated as Monument® 75WG.
Treatment requirements were calculated based upon the rates being tested, the concentration of active ingredient or acid equivalent in the formulation, and a 12 mL application volume at a rate of 187 L/ha.
For treatments comprised of formulated compounds, measured amounts of compounds were placed individually in 25 mL glass vials and diluted in a volume of 1.25% (v/v) Agri-Dex® crop oil concentrated to obtain 12× stock solutions. […] Application solutions were prepared by adding an appropriate amount of each stock solution (e.g., 1 mL) and diluted to the appropriate final concentrations with the addition of 10 mL of an aqueous mixture of 1.25% (v/v) crop oil concentrate so that the final spray solutions contained 1.25+/−0.05% (v/v) Agrcrop oil concentrate.
For treatments comprised of formulated and technical compounds, weighed amounts of the technical materials were placed individually in 25 mL glass vials and dissolved in a volume of 97:3 v/v acetone/DMSO to obtain 12× stock solutions, and measured amounts of the formulated compounds were placed individually in 25 mL glass vials and diluted in a volume of 1.25% (v/v) crop oil concentrate to obtain 12× stock solutions. […] Application solutions were prepared by adding an appropriate amount of each stock solution (e.g., 1 mL) and diluted to the appropriate final concentrations with the addition of an appropriate amount of an aqueous mixture of 1.5% (v/v) crop oil concentrate so that the final spray solutions contained 1.25% (v/v) crop oil concentrate. […]

[10] = Table 54, after 20-22 days, 2.5 gai/ha alone

## COc1nc(C)nc(NC(=O)NS(=O)(=O)c2ccccc2Cl)n1 [Chlorsulfuron]
[1]; Table 52, after 20-22 days, 2.2 gai/ha alone
  Weed Control VIOTR Obs: 70%
[2]; Table 52, 2.2 gai/ha alone
  pest or weed control at 2.2 g/ha: 78%

## CCS(=O)(=O)c1nc2ccccn2c1S(=O)(=O)NC(=O)Nc1nc(OC)cc(OC)n1 [Sulfosulfuron]
[3]
  Weed Control LAMPU Obs: 5%
[4]
  Weed Control VERPE Obs: 35%
[2]; Table 57, 8.75 gai/ha Sulfosulfuron alone
  pest or weed control at 8.75 g/ha: 70%
[5]; Table 57, after 20-22 days, 8.75 gai/ha Sulfosulfuron alone
  Weed Control MATCH Obs: 95%

## COC(=O)c1ccccc1S(=O)(=O)NC(=O)Nc1nc(C)nc(OC)n1 [Metsulfuron ME]
[6]
  Weed Control SIDSP Obs: 52%
[7]
  Weed Control CASOB Obs: 8%
[8]
  Weed Control POROL Obs: 80%

## COC(=O)c1ccc(I)cc1S(=O)(=O)[N-]C(=O)Nc1nc(C)nc(OC)n1.[Na+] [Iodosulfuron-methyl sodium, methyl 4-iodo-2-[[[[(4-methoxy-6-methyl-1,3,5-triazin-2-yl)amino]carbonyl]amino]sulfonyl]benzoate, sodium salt, reference compound]
[9]; 2.5 gai/ha
  Visual Weed Control (%) Obs: 90%
[9]; 5 gai/ha
  Visual Weed Control (%) Obs: 95%
[1]; [10]
  Weed Control VIOTR Obs: 82%
[2]; Table 54, 2.5 gai/ha alone
  pest or weed control at 2.5 g/ha: 60%
[5]; [10]
  Weed Control MATCH Obs: 94%
